In ChEMBL document CHEMBL5209564, “Superclomeleon biosensor based assay for SLC12A3 using HEK-293 SLC12A3 OE cells” (2022) one finds proof of principle data, which are given here for one compound.

The experiment deals with T1, Solute carrier family 12 member 3 (Homo sapiens) (UniProt P55017).
T1 sequence (whole entry): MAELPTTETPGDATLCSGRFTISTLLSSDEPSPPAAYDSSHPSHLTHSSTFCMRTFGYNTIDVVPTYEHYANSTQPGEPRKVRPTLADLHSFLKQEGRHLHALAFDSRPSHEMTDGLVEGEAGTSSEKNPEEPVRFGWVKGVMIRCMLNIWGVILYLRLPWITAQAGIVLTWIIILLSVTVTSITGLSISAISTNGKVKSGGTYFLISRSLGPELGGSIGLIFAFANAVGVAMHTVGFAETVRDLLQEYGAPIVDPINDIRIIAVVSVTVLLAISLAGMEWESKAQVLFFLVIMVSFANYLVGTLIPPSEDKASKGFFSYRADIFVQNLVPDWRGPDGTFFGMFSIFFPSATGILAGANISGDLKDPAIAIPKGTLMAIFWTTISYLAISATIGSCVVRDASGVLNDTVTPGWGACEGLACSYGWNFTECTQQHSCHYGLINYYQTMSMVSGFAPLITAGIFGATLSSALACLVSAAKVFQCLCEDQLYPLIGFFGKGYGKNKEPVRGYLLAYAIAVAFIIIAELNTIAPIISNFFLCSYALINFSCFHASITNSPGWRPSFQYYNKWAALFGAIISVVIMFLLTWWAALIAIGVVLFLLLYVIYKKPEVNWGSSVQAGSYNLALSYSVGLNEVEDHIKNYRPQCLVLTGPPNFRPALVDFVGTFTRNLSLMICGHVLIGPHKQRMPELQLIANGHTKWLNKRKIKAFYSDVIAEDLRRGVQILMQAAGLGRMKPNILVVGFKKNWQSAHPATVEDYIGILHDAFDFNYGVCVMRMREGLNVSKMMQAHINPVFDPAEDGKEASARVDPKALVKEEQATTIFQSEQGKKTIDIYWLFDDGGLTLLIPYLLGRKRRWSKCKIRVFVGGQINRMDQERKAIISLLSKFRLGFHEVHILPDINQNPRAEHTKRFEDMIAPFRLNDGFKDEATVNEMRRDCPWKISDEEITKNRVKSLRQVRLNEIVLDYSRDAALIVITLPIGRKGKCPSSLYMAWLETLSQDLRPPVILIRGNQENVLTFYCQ
The following applies: HEK293.

Description: Substrate uptake by the thiazide-sensitive electroneutral NaCl co-transporter (NCC, SLC12A3) as assessed by a Cl- sensitive FRET (Fluorescence Resonance Energy Transfer) sensor (SuperClomeleon) in HEK-293 JumpIN-SLC12A3 cells (PubChem AID: 1794834)

`Cl`: the proof of principle entry is “Substrate. In Comparison To Wild-Type And Not-Induced Cells, Cells With Induced Slc12A3 Expression Showed A Specific Transporter Activity, Upon Substrate Addition, Detected As Significantly Higher Sensor Fluorescence Quenching”.
